Experimental data: publication PMC12814486 (Bioorganic & medicinal chemistry, 2025)
Converted amounts (≈) assume the structure as drawn.

How the values were obtained:
human sEH = target: T1, human sEH (Homo sapiens, UniProt P34913); assay: sEH inhibition assay; assay type: biochemical
T1 sequence (P34913 1-555): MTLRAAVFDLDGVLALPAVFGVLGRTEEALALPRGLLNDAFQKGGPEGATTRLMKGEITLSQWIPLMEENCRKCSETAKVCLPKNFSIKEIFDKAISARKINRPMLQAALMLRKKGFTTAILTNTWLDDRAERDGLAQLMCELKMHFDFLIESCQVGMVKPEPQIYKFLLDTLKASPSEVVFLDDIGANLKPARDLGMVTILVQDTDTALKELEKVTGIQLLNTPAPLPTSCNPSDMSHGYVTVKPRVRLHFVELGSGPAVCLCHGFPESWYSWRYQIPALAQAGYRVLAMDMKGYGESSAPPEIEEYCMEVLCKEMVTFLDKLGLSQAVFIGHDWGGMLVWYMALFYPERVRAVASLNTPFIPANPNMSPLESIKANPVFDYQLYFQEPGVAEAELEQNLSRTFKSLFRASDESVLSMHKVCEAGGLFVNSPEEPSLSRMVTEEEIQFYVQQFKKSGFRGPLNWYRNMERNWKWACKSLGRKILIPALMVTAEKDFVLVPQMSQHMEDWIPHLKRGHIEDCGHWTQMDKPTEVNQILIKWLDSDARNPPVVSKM

rat sEH = target: T2, rat sEH (Rattus norvegicus, UniProt P80299); assay: sEH inhibition assay; assay type: biochemical
T2 sequence (P80299 1-554): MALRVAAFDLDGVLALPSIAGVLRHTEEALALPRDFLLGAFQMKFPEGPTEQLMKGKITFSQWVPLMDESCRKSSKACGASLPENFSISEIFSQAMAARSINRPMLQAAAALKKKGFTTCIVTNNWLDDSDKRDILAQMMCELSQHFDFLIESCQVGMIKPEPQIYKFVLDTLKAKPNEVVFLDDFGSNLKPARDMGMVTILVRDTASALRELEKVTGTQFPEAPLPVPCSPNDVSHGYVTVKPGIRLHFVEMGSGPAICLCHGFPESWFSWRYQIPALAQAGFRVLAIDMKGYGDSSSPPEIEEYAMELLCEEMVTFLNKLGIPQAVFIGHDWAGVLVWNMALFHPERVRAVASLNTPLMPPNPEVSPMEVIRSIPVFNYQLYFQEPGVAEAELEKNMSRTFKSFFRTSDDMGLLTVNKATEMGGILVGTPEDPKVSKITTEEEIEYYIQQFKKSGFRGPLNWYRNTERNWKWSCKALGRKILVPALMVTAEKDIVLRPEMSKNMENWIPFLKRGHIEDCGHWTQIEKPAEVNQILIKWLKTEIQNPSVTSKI

human FAAH = target: T3, human FAAH (Homo sapiens, UniProt O00519); assay: FAAH inhibition assay; assay type: biochemical
T3 sequence (O00519 1-579): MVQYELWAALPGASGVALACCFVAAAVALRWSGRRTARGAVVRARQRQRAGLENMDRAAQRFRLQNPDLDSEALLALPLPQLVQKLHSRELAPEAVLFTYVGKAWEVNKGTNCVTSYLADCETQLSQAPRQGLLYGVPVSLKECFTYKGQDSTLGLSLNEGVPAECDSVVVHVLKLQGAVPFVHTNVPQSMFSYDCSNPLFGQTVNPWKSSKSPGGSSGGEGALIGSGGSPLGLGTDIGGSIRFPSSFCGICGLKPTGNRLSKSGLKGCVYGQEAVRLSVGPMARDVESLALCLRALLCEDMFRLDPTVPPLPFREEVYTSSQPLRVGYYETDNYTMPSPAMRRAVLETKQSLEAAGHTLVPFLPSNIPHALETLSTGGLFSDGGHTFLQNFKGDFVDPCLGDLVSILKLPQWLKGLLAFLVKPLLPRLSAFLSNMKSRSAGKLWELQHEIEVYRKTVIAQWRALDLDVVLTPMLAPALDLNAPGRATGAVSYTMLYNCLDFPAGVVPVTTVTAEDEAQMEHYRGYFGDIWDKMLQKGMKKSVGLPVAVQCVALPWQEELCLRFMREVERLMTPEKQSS

Solubility assay = assay type: physicochemical; settings: sodium phosphate buffer, pH 7.4, aqueous buffer, kinetic from dmso stock
mouse sEH = target: T4, mouse sEH (Mus musculus, UniProt P34914); assay: sEH inhibition assay; assay type: biochemical
T4 sequence (P34914 1-554): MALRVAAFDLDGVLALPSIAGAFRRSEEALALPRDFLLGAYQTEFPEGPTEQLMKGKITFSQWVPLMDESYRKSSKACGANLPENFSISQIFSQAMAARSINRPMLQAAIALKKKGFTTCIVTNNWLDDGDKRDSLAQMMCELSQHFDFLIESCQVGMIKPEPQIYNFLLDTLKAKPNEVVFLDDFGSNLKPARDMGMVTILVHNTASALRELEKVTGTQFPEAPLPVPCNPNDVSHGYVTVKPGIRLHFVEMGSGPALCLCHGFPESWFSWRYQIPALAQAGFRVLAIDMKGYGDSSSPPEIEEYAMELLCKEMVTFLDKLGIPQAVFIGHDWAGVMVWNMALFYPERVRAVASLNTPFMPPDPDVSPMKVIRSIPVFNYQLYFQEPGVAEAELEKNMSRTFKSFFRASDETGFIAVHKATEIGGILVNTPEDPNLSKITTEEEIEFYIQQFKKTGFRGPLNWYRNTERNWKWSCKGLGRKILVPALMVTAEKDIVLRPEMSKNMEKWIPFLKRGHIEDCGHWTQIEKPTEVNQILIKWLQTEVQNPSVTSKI

male Sprague-Dawley rats = assay: Home cage wheel running; assay type: in vivo, rat; settings: 3 mg/kg intraperitoneal, vs vehicle, n = 8/group

Row | SMILES | IC50 (human sEH) [nM] | IC50 (rat sEH) [nM] | IC50 (human FAAH) [nM] | solubility (Solubility assay) [µM] | IC50 (mouse sEH) [nM] | wheel revolutions in the 15 min after drug injection (male Sprague-Dawley rats)
1 | O=C(Nc1ccc(-c2ncccn2)cc1)C1CCN(S(=O)(=O)c2ccccc2Cl)CC1 [Compound 4a, 1-((2-chlorophenyl)sulfonyl)-N-(4-(pyrimidin-2-yl)phenyl)piperidine-4-carboxamide] | 19.7 | 18.1 | 175 | > 63 | 342 | 
2 | O=C(Nc1ccc(-c2cncnc2)cc1)C1CCN(S(=O)(=O)c2ccccc2Cl)CC1 [Compound 4b, 1-((2-chlorophenyl)sulfonyl)-N-(4-(pyrimidin-5-yl)phenyl)piperidine-4-carboxamide] | 5.6 | 4.9 | 196 | > 63 | 904 | 
3 | O=C(Nc1ccc(-c2ncc(F)cn2)cc1)C1CCN(S(=O)(=O)c2ccccc2Cl)CC1 [Compound 4c, 1-((2-chlorophenyl)sulfonyl)-N-(4-(5-fluoropyrimidin-2-yl)phenyl)piperidine-4-carboxamide] | 23.4 | 47.7 | 290 | 31 to 63 (≈ 14.7 to 29.9 µg/mL) | 82.5 | 
4 | O=C(Nc1ccc(-c2ncc(Cl)cn2)cc1)C1CCN(S(=O)(=O)c2ccccc2Cl)CC1 [Compound 4d, 1-((2-chlorophenyl)sulfonyl)-N-(4-(5-chloropyrimidin-2-yl)phenyl)piperidine-4-carboxamide] | 89.4 | 82.3 | 460 | 31 to 63 (≈ 15.2 to 31 µg/mL) | 89 | 
5 | Cc1cnc(-c2ccc(NC(=O)C3CCN(S(=O)(=O)c4ccccc4Cl)CC3)cc2)nc1 [Compound 4e, 1-((2-chlorophenyl)sulfonyl)-N-(4-(5-methylpyrimidin-2-yl)phenyl)piperidine-4-carboxamide] | 73.6 | 73.9 | 308 | 31 to 63 (≈ 14.6 to 29.7 µg/mL) | 79.8 | 
6 | COc1cnc(-c2ccc(NC(=O)C3CCN(S(=O)(=O)c4ccccc4Cl)CC3)cc2)nc1 [Compound 4f, 1-((2-chlorophenyl)sulfonyl)-N-(4-(5-methoxypyrimidin-2-yl)phenyl)piperidine-4-carboxamide] | 26.3 | 55.9 | 181 | 31 to 63 (≈ 15.1 to 30.7 µg/mL) | 32.4 | 
7 | O=C(Nc1ccc(-c2cnc(F)nc2)cc1)C1CCN(S(=O)(=O)c2ccccc2Cl)CC1 [Compound 4g, 1-((2-chlorophenyl)sulfonyl)-N-(4-(2-fluoropyrimidin-5-yl)phenyl)piperidine-4-carboxamide] | 27.2 | 43.7 | 175 | 31 to 63 (≈ 14.7 to 29.9 µg/mL) | 161 | 
8 | O=C(Nc1ccc(-c2cnc(Cl)nc2)cc1)C1CCN(S(=O)(=O)c2ccccc2Cl)CC1 [Compound 4h, 1-((2-chlorophenyl)sulfonyl)-N-(4-(2-chloropyrimidin-5-yl)phenyl)piperidine-4-carboxamide] | 32.6 | 71.5 | 258 | 31 to 63 (≈ 15.2 to 31 µg/mL) | 510 | 
9 | Cc1ncc(-c2ccc(NC(=O)C3CCN(S(=O)(=O)c4ccccc4Cl)CC3)cc2)cn1 [Compound 4i, 1-((2-chlorophenyl)sulfonyl)-N-(4-(2-methylpyrimidin-5-yl)phenyl)piperidine-4-carboxamide] | 5.6 | 12.1 | 1240 | 31 to 63 (≈ 14.6 to 29.7 µg/mL) | 214 | 
10 | COc1ncc(-c2ccc(NC(=O)C3CCN(S(=O)(=O)c4ccccc4Cl)CC3)cc2)cn1 [Compound 4j, 1-((2-chlorophenyl)sulfonyl)-N-(4-(2-methoxypyrimidin-5-yl)phenyl)piperidine-4-carboxamide] | 7.7 | 17.9 | 462 | 31 to 63 (≈ 15.1 to 30.7 µg/mL) | 379 | 
11 | O=C(Nc1ccc(-c2cnc(C(F)(F)F)nc2)cc1)C1CCN(S(=O)(=O)c2ccccc2Cl)CC1 [Compound 4k, 1-((2-chlorophenyl)sulfonyl)-N-(4-(2-(trifluoromethyl)pyrimidin-5-yl)phenyl)piperidine-4-carboxamide] | 94.6 | 134 | 327 | 31 to 63 (≈ 16.3 to 33.1 µg/mL) | 1130 | 
12 | O=C(Nc1ccc(-c2cnc(Cl)nc2Cl)cc1)C1CCN(S(=O)(=O)c2ccccc2Cl)CC1 [Compound 4l, 1-((2-chlorophenyl)sulfonyl)-N-(4-(2,4-dichloropyrimidin-5-yl)phenyl)piperidine-4-carboxamide] | 78.8 | 15.4 | 2000 | 31 to 63 (≈ 16.3 to 33.1 µg/mL) | 40.4 | 
13 | O=C(Nc1ccc(-c2nnn[nH]2)cc1)C1CCN(S(=O)(=O)c2ccccc2Cl)CC1 [Compound 4n, N-(4-(1H-tetrazol-5-yl)phenyl)-1-((2-chlorophenyl)sulfonyl)piperidine-4-carboxamide] | 232 | 83.4 | > 10000 | 31 to 63 (≈ 13.9 to 28.2 µg/mL) | 202 | 
14 | O=C(Nc1ccc(-c2nnnn2C2CC2)cc1)C1CCN(S(=O)(=O)c2ccccc2Cl)CC1 [Compound 4o, 1-((2-chlorophenyl)sulfonyl)-N-(4-(1-cyclopropyl-1H-tetrazol-5-yl)phenyl)piperidine-4-carboxamide] | 22 | 29.6 | > 10000 | 31 to 63 (≈ 15.1 to 30.7 µg/mL) | 12.5 | 
15 | O=C(Nc1ccc(-c2nnnn2Cc2ccccc2)cc1)C1CCN(S(=O)(=O)c2ccccc2Cl)CC1 [Compound 4p, N-(4-(1-benzyl-1H-tetrazol-5-yl)phenyl)-1-((2-chlorophenyl)sulfonyl)piperidine-4-carboxamide] | 9.8 | 25.5 | > 10000 | 31 to 63 (≈ 16.6 to 33.8 µg/mL) | 106 | 
16 | COc1cnc(-n2nnnc2-c2ccc(NC(=O)C3CCN(S(=O)(=O)c4ccccc4Cl)CC3)cc2)c(OC)n1 [Compound 4q, 1-((2-chlorophenyl)sulfonyl)-N-(4-(1-(3,5-dimethoxypyrazin-2-yl)-1H-tetrazol-5-yl)phenyl)piperidine-4-carboxamide] | 213 | 305 | > 10000 | 31 to 63 (≈ 18.1 to 36.9 µg/mL) | 264 | 
17 | NC(=O)c1cccc(-c2cccc(OC(=O)NC3CCCCC3)c2)c1 [URB597, reference compound] |  |  |  | > 63 |  | 
18 | CN1CC[C@]23c4c5ccc(O)c4O[C@H]2[C@@H](O)C=C[C@H]3[C@H]1C5 [morphine, reference compound] |  |  |  |  |  | significantly lower
